# US8431715B2, “Thiazole compound (as PPARδ) ligand and pharmaceutical, cosmetic and health food comprised thereof” (Seoul National University Industry Foundation, priority 2007, dated 2013)
# How the values were obtained:
# [1] = system: C57BL/6 mice; assay: Morris water maze test, LPS brain disease animal model; assay type: in vivo
# Procedure: The therapeutic effect of the compound of the present invention on dementia and Parkinson's disease based on the memory improving effect thereof was investigated using brain disease animal model (C57BL/6 mice at 10 weeks). First, LPS was injected into the mouse brain to construct brain disease animal model. The mice were divided into four groups according to the administration and exercise. The exercise was performed with treadmill at the speed of 2 meter/min for the first 5 minutes, at 5 meter/min for 5 minutes, at 8 meter/min for 5 minutes and at 20 meter/min for the last 5 minutes. At the finish, Morris water maze test was performed. As a result, the therapeutic effect of the compound of formula 1 of the present invention on dementia and Parkinson's disease via memory enhancement by the compound and exercise was confirmed in the brain disease animal model.
# [2] = system: mice; assay: GTT (glucose tolerance test), diabetes improving effect; assay type: in vivo; conditions: oral pre-treatment 78 days
# Procedure: GTT (glucose tolerance test) was performed to confirm the diabetes improving effect of the compound of the present invention. Glucose (1.5 g/Kg) was intra-abdominally administered to the mice pre-treated orally with samples for 78 days. Blood glucose was measured every hour. Fasting blood glucose was lower in the group treated with the compound of the present invention than in the group treated with vehicle or GW501516.
# [3] = system: C57BL/6 mice; assay: Obesity inhibitory effect, high-fat feed; assay type: in vivo; conditions: 10 mg/Kg/day oral, 35% fat feed for 35 days; vehicle 58.9%
# Procedure: An animal test using mice was performed to confirm the in vivo effect of the compound of the present invention. C57BL/6 (SLC Co.) mice at 14 weeks were used. To induce obesity, feeds containing 35% fat were given.
# [4] = system: CV-1 cells; assay: MTT assay, cytotoxicity; assay type: cell-based; conditions: 24 hours, even at the concentration of 100,000 times the EC50 value
# Procedure: MTT assay was performed to test cytotoxicity of the compounds of the present invention. MTT is a yellow substance soluble in water, but when it is introduced into a living cell, it turns into a purple insoluble crystal by dehydrogenase in mitochondria. Cytotoxicity can be confirmed by measuring OD550 after dissolving MTT in dimethylsulfoxide. The experiment was performed as follows.
# CV-1 cells were inoculated in a 96-well plate (5000 cells/well). The cells were cultured in a 37[…] 5% CO2 incubator for 24 hours, and treated with the compounds of formula 1 and formula 2 at different concentrations. Then, the cells were cultured for 24 hours again, to which MTT reagent was added. After culturing for 15 minutes, the generated purple crystals were dissolved in dimethylsulfoxide. Optical density was measured with a microplate reader to confirm cytotoxicity.
# [5] = biological target: T1, PPARα (Homo sapiens, UniProt Q07869); assay: Transfection assay (luciferase reporter) in CV-1 cells, PPARα; assay type: cell-based; conditions: 24 hours treatment
# T1 construct: Full length PPARs plasmid DNA, reporter DNA confirming PPARs activity owing to its luciferase activity; expressed in transfected cells; host or cells: CV-1 cells
# T1 sequence (Q07869 1-468): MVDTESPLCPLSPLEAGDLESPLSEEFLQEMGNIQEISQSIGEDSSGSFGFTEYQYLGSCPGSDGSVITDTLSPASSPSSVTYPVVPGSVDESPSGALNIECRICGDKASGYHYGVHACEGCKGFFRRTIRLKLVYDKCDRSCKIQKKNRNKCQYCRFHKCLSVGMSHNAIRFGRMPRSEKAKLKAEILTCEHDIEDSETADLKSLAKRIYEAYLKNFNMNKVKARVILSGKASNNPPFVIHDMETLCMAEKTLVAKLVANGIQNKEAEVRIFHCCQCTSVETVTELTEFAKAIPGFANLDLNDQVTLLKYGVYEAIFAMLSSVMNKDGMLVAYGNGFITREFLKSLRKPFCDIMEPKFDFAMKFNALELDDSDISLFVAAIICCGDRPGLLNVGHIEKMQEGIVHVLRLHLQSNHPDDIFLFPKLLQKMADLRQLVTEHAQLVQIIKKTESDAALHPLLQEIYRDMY
# Procedure: The PPARδ activities of the R-form compound represented by formula 1 of the present invention and the S-form compound represented by formula 2 were measured by transfection assay. In addition, the selectivity to PPAR subtypes, PPARα and PPARγ, was examined. Cytotoxicity was tested by MTT assay and in vivo activity and toxicity was investigated by animal experiment using mice.
# CV-1 cells were used in this assay. The cells were inoculated in a 96-well plate containing DMEM supplemented with 10% FBS, DBS (delipidated) and 1% penicillin/streptomycin and cultured in a 37 °C, 5% CO2 incubator. The experiment was performed according to the steps of inoculation, transfection, sample treatment and confirmation. Particularly, CV-1 cells were inoculated in a 96 well-plate (5000 cells/well), followed by transfection 24 hours later. Full length PPARs plasmid DNA, reporter DNA confirming PPARs activity owing to its luciferase activity, β-galactosidase DNA providing information on transfection efficiency, and transfection reagent were used for the transfection. The compounds of formula 1 and formula 2 were dissolved in dimethylsulfoxide (DMSO), which were treated to the cells via media at different concentrations. […] Luciferase activity and β-galactosidaseactivity were measured with Luminometer and a microplate reader. […] A graph was made with those values and EC50 was calculated.
# [6] = system: ApoE−/− mouse; assay: Arteriosclerosis inhibiting effect, Sudan IV plaque staining; assay type: in vivo; conditions: 2 mg/kg/day oral, high fat high cholesterol feeds, 28 days
# Procedure: In vivo animal test using ApoE−/− mouse, which is an animal model for arteriosclerosis, was performed to confirm the arteriosclerosis inhibiting effect of the compound of the present invention. The animals were orally administered with 2 mg/kg/day of the compound of formula 1 of the present invention while feeding with high fat, high cholesterol feeds (20% fat, 1.25% cholesterol; AIN-93G diet). 28 days later, plaque staining was performed over the whole artery using Sudan IV to investigate the arteriosclerosis inhibiting effect of the compound by comparing the results between experimental and control groups. As a result, arteriosclerosis was 30% inhibited in ApoE−/− mouse treated with the compound of formula 1 of the present invention, compared with the control.
compound,measurement,setting,value
Cc1cc(S[C@H](Cc2ccccc2)c2sc(-c3ccc(C(F)(F)F)cc3)nc2C)ccc1OCC(=O)O (racemic) [formula 1],Results of water maze test,"[1]; Exercise (O), control 29 seconds",13 s
same,Results of water maze test,"[1]; Exercise (X), control 36 seconds",25 s
same,time of rapid blood glucose decrease,[2]; glucose 1.5 g/Kg intra-abdominal,20 to 40 min
same,fasting blood glucose,[2]; compared with vehicle or GW501516 group,lower
same,weight increase,[3],23.1%
same,cytotoxicity,[4],not to have cytotoxicity
same,EC50 PPARα,[5],ia
same,arteriosclerosis inhibition compared with the control,[6],30%
